Assay results: US4826845A, “3(2H)-pyridazinones and pharmaceutical compositions thereof” (Richter Gedeon Vegyeszeti Gyar T.R., priority 1985, dated 1989)
Where a name gives a salt, the structure may show the parent alone. Read-outs that look alike come from different tables or passages of the source.

Tests used:
conscious SH rats [1] = test: Antihypertensive effect on conscious, spontaneously hypertensive (SH) rats after oral administration; format: in vivo, rat
From the text: The systolic blood pressure was indirectly measured by the tail-cuff method. The compounds to be tested were introduced orally (p.o.) to the animals. The blood pressure measurements were made by using a 5-channel automatized equipment.

[2] = tested on: adrenergic receptor-mediated calcium channel; test: Calcium-antagonism on isolated portal vein: adrenergic receptor-mediated calcium channel; format: cell-based; conditions: rat portal vein, 1×10^-5 mole norepinephrine, 37° C.; read-out: Inhibition of the calcium channel, adrenergic receptor-mediated, IC50
Method: The calcium-antagonism of the compounds of the invention was studied on an isolated vessel preparation based on the work of M. Fiol de Cuneo et al. [Arch. Int. Pharmacodyn.
Male CFY rats with a body-weight of 150 to 200 g were bled by decapitation and the portal vein was immediately prepared starting from the hepatic portal. The vessel was longitudinally incised, bound to a transducer registering the contractions and incubated under a tension of 1 g at 37° C. in a calcium-free Krebs-Ringer bicarbonate solution aerated with carbogen. After an equilibration lasting for 30 minutes, the functioning of the receptor-mediated and the K^+ -depolarisation-mediated calcium channels, respectively, were investigated.
All measurements were carried out at 37° C. while bubbling through carbogen.

[3] = tested on: pressor (blood pressure increasing) effect of epinephrine; test: Inhibition of the pressor effect of epinephrine; conditions: in vivo
conscious SH rats [4] = test: Antihypertensive effect on conscious SH rats after acute oral treatment; format: in vivo, rat
From the text: These experiments were accomplished on conscious spontaneously hypertensive (SH) and renally hypertensive rats.
The systolic blood pressure and heart rate of the animals were indirectly measured by using the tail-cuff method by means of a 5- channel automatized equipment.

Acute toxicity in rats = conditions: rat, in vivo
From the text: Male and female CFY rats and mice were used.

O=c1cccnn1CCCNCC1COc2ccccc2O1 (stereo not shown) [Example 3 (or 12), 2-[3-(benzo[1,4]dioxan-2-yl-methylamino)-1-propyl]-3(2H)-pyridazinone hydrochloride]
Decrease in the systolic blood pressure (conscious SH rats [1]; 6.25 mg/kg p.o.): -18%
Decrease in the systolic blood pressure (conscious SH rats [1]; 12.5 mg/kg p.o.): -25%
Decrease in the systolic blood pressure (conscious SH rats [1]; 25 mg/kg p.o.): -32%
IC50 [2]: 400 nM
inhibition of the pressor effect of epinephrine (in words) [3]: significant inhibition
hypotension up to the 5th hour (conscious SH rats [4]; SH rats, 6.25 mg/kg p.o., up to 5th hour): 16%
antihypertensive effect (conscious SH rats [4]; SH rats, 6.25 mg/kg p.o., within one hour): 29%
dose dependence of level and duration of the antihypertensive effect (in words) (conscious SH rats [4]; SH rats, 6.25, 12.5 or […] p.o.): increased by increasing the doses
heart rate alteration (in words) (conscious SH rats [4]; SH rats, p.o.): no significant heart rate alteration
LD50 at 336 h (Acute toxicity in rats; ip, female, i.p., read-out: LD50 i.p.): 97.8 mg/kg
LD50 at 336 h (Acute toxicity in rats; ip, male, i.p., read-out: LD50 i.p.): 116 mg/kg
LD50 at 336 h (Acute toxicity in rats; po, female, p.o., read-out: LD50 p.o.): 400 mg/kg
LD50 at 336 h (Acute toxicity in rats; po, male, p.o., read-out: LD50 p.o.): 600 mg/kg
